Laboratory results taken from PMC5955599, “The HTLV-1 gp21 fusion peptide inhibits antigen specific T-cell activation in-vitro and in mice” (PLoS Pathogens, 2018).

Key:
Format in all cases: cell-based, mouse (C57Bl/6J)
[1] = system: MOG35-55–antigen specific T-cells; test: mRNA expression in activated T-cells (qRT-PCR); conditions: 10μM; APC activation; RNA 24 hours following activation; normalized to Rpl13a; n≥3
Procedure: (§1) Fig 2 Modulation of Th1/Th2 gene expression and cytokine secretion from activated T-cells by the HTLV FP. MOG35-55–antigen specific T-cells were activated by irradiated MOG35-55 presenting APCs, in the presence of the HTLV FP at 10μM. (A) Total RNA was isolated 24 hours following activation and mRNA expression levels were determined by qRT-PCR. The values of each gene were normalized to Rpl13a as a housekeeping control. The HTLV FP reduces mRNA expression of Th1 specific genes (IFNG, LTA, and STAT4) and elevates mRNA expression of Th2 specific genes (IL4 and IL10). The data is presented as arbitrary units. n≥3. (B) Media was collected 24 hours following activation and secretion of cytokines was measured by ELISA assay. IFN-γ secretion is inhibited, IL4 secretion is elevated and TNFα is not affected by the HTLV FP. n = 12. One-way ANOVA was used for statistical analysis. *P<0.05; **P<0.01;***P<0.001.
(§2) (A-B) MOG35-55–antigen specific T-cells were activated by irradiated MOG35-55 presenting APCs, in the presence of the HTLV FP at 10μM. Total RNA was isolated 24 hours following activation and mRNA expression levels were determined by qRT-PCR. The values of each gene were normalized to Rpl13a as a housekeeping control. The HTLV FP reduces TBX21 (T-bet) mRNA expression and elevates GATA3 mRNA expression. The data is presented as arbitrary units. n≥3. (C-H) MOG35-55–antigen specific T-cells were activated by irradiated MOG35-55 presenting APCs, in the presence of either HTLV or HIV FP at 10μM. Samples were fixed in 4% PFA and stained with anti T-bet-APC and anti Gata3-FITC antibodies (C-D) 24, (E-F) 48 and (G-H) 72 hours following activation. Each time point is represented as cell count vs. APC or FITC fluorescence histogram. Analysis was performed using LSR-II flow cytometer (BD) and FlowJo cell analysis software (FlowJo, LLC). The HTLV FP reduces T-bet expression and elevates Gata3 expression. n = 3. One-way ANOVA was used for statistical analysis. ns, not significant; *P<0.05;** P<0.01.
Antigen-specific T-cells were plated onto round 12-well plates (10^6 cells/ well) and activated with 5x10^5 irradiated (25 gray) APC and 5μg/ml of MOG p35-55 in the presence or absence of relevant peptides. Total RNA from cells was isolated 24 hours following activation using the NucleoSpin RNA II kit (Macherey-Nagel, Duren, Germany). 2μg aliquot of the total RNA was reverse transcribed into cDNA using Bio-RT (Bio-Lab, Jerusalem, Israel), dNTPs and random hexamer primers. qRT-PCR was performed on Step One Plus, ABI instrument (Applied Biosystems, Grand Island, NY, USA) using SYBR Green PCR Master Mix (Quanta BioSciences, Gaithersburg, MD, USA). The values for the specific genes were normalized to Rpl13a (mouse) as housekeeping controls and the data are described in arbitrary units. PCR reactions were performed in duplicate. The specific primers used for qRT-PCR are available on request.

[2] = system: MOG35-55–antigen specific T-cells; test: T-bet and Gata3 expression detected by FACS; conditions: peptide at 10μM, APC activation, n = 3
Procedure: as §2
Antigen-specific T-cells were plated onto round 12-well plates (10^6 cells/ well) and activated with 5x10^5 irradiated (25 gray) APC and 5μg/ml of MOG p35-55 in the presence or absence of relevant peptides. Cells were washed with PBS, blocked (5% Donkey serum, 2% BSA and 0.1% Triton in PBS) and fixed with 4% Paraformaldehyde (PFA) 24 hour following activation. Cells were then stained with Gata3-FITC and T-bet-APC fluorochrome-labeled monoclonal mouse antibodies (purchased from Miltenyi Biotec) according to Miltenyi Biotec protocols. Samples were then collected using LSR-II flow cytometer and analyzed with FlowJo cell analysis software.

[3] = system: MOG35-55–antigen specific T-cells; test: Cytokine secretion from activated antigen-specific T-cells (ELISA); conditions: peptide at 10μM, APC-activated T-cells, media 24 hours following activation, n = 12
Procedure: as §1
Antigen-specific T-cells were plated onto round 96-well plates in medium containing RPMI-1640 supplemented with 2.5% fetal calf serum (FCS), 100 U/ml penicillin, 100 μg/ml streptomycin, 50μM β-mercaptoethanol, and 2mM L-glutamine. […] In addition, the relevant peptide was added. Each treatment was made with quadruplicate. Analysis of IFN-γ, IL-4 and TNFα secretion was performed by ELISA 24 hours after cell activation according to standard protocols from R&D systems.

For “AVPVAVWLVSALAMGAGVAGGITGSMSLASGKS [HTLV FP, gp21 fusion peptide of HTLV-1, MT-2 isolate]”, the “GATA3 mRNA expression” value [1] was “elevated Gata3 expression”, the “IFNG mRNA level” value [1] was “reduced the mRNA levels” and the “IL4 mRNA level” value [1] was “elevated the mRNA levels”. For the same sequence, the “IL10 mRNA level” value [1] was “elevated the mRNA levels”, the “LTA mRNA level” value [1] was “reduced the mRNA levels” and the “STAT4 mRNA level” value [1] was “reduced the mRNA levels”. For the same sequence, the “TBX21 (T-bet) mRNA expression” value [1] was “reduced TBX21 (T-bet) expression”, the “Gata3 expression (protein), 24 hours” value ([2]; 24 hours following activation) was “elevated Gata3 expression” and the “T-bet expression (protein), 24 hours” value ([2]; 24 hours following activation) was “reduced T-bet expression”. The “Gata3 expression (protein), 48 hours” value ([2]; 48 hours following activation) was “elevated Gata3 expression”, the “T-bet expression (protein), 48 hours” value ([2]; 48 hours following activation) was “reduced T-bet expression” and the “Gata3 expression (protein), 72 hours” value ([2]; 72 hours following activation) was “elevated Gata3 expression”. The “T-bet expression (protein), 72 hours” value ([2]; 72 hours following activation) was “no difference was observed”, the IFN-γ secretion [3] was “inhibited both T-cell proliferation and IFN-γ secretion with higher potency than the HTLV Scr” and the IL4 secretion [3] was “elevated IL4 secretion”. For the same sequence, the TNF-α secretion [3] was “had no effect on TNF-α secretion”.
